For data set [1] the following is noted: patients; cited from earlier work.
For data set [2], the system named is VCAM-1 expression, SKOV3ip1 (platinum resistant) tumors. It is filed as in vivo, mouse. To be noted: SKOV3ip1 mice, single IP 25 mg/kg; 111In-tVCAM-4 omentum biodistribution; n=3.
The next data set concerns LP9 mesothelial cells. Kind of data set: Viability of carboplatin-treated LP9 mesothelial cells. It is filed as cell-based, human. To be noted: increasing concentrations up to 1 μg/ml, 24 hours, data not shown.
The next data set has as its system VCAM-1. To be noted: previous work; cited from earlier work.

In the case of `N.N.O=C([O-])C1(C(=O)[O-])CCC1.[Pt+2]` [carboplatin], the “injected dose excreted within 24 hours” value in data set [1] is “up to 80%”. In data set [2], the “VCAM-1 expression above baseline 2 days after treatment” value was determined as 50%. The “effect on cell viability” value with LP9 mesothelial cells is reported as “None of the concentrations tested altered”.

For “(βAKTLLPTPGGS(PEG5000))KKKDOTAβA-NH2 [tVCAM-4]”, in the data set with VCAM-1, the “affinity for VCAM-1” value is given as “high affinity”.

The values above are taken from article PMC3992874 (Journal of nuclear medicine : official publication, Society …, 2013).
